Measurements reported in patent US12077503B2, “Substituted cyclic amides and their use as herbicides” (FMC CORPORATION, priority 2015, dated 2024).

Legend:
Format in all cases: in vivo
[1] = system: wheat (Triticum aestivum); experiment: Test A postemergence; conditions: postemergence; for Wheat plant response rating: 125 g ai/ha, visual injury rating on 0 to 100 scale (0 no effect, 100 complete control), approx. 10 d; for Plant response rating, Wheat: 500 g ai/ha, 0 to 100 scale, 0 no effect, 100 complete control
How it was run: (§1)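 Visual injury, scored on a 0–100 scale relative to untreated controls, was recorded about 10 d after application. Treatments were a preemergence soil spray over planted seeds or a postemergence spray on plants at the one- to two-leaf stage, 2 to 10 cm tall, all in loam soil–sand blend in the greenhouse.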

[2] = system: giant foxtail (Setaria faberii); experiment: Test A postemergence; conditions: postemergence; for Foxtail, Giant plant response rating: 125 g ai/ha, visual injury rating on 0 to 100 scale (0 no effect, 100 complete control), approx. 10 d; for Plant response rating, Foxtail, Giant: 500 g ai/ha, 0 to 100 scale, 0 no effect, 100 complete control
How it was run: as §1

[3] = system: pigweed (Amaranthus retroflexus); experiment: Test A postemergence; conditions: postemergence; for Pigweed plant response rating: 125 g ai/ha, visual injury rating on 0 to 100 scale (0 no effect, 100 complete control), approx. 10 d; for Plant response rating, Pigweed: 500 g ai/ha, 0 to 100 scale, 0 no effect, 100 complete control
How it was run: as §1

[4] = system: ragweed (common ragweed, Ambrosia elatior); experiment: Test A postemergence; conditions: postemergence; for Ragweed plant response rating: 125 g ai/ha, visual injury rating on 0 to 100 scale (0 no effect, 100 complete control), approx. 10 d; for Plant response rating, Ragweed: 500 g ai/ha, 0 to 100 scale, 0 no effect, 100 complete control
How it was run: as §1

[5] = system: barnyardgrass (Echinochloa crus-galli); experiment: Test A postemergence; conditions: postemergence; for Barnyardgrass plant response rating: 125 g ai/ha, visual injury rating on 0 to 100 scale (0 no effect, 100 complete control), approx. 10 d; for Plant response rating, Barnyardgrass: 500 g ai/ha, 0 to 100 scale, 0 no effect, 100 complete control
How it was run: as §1

corn (Zea mays) = experiment: Test A postemergence; conditions: postemergence; for Corn plant response rating: 125 g ai/ha, visual injury rating on 0 to 100 scale (0 no effect, 100 complete control), approx. 10 d; for Plant response rating, Corn: 500 g ai/ha, 0 to 100 scale, 0 no effect, 100 complete control
How it was run: as §1

Kochia (Kochia scoparia) [6] = experiment: Test A postemergence; conditions: postemergence; for Kochia plant response rating: 125 g ai/ha, visual injury rating on 0 to 100 scale (0 no effect, 100 complete control), approx. 10 d; for Plant response rating, Kochia: 500 g ai/ha, 0 to 100 scale, 0 no effect, 100 complete control
How it was run: as §1

[7] = system: ryegrass, Italian (Italian ryegrass, Lolium multiflorum); experiment: Test A postemergence; conditions: postemergence; for Ryegrass, Italian plant response rating: 125 g ai/ha, visual injury rating on 0 to 100 scale (0 no effect, 100 complete control), approx. 10 d; for Plant response rating, Ryegrass, Italian: 500 g ai/ha, 0 to 100 scale, 0 no effect, 100 complete control
How it was run: as §1

[8] = system: blackgrass (Alopecurus myosuroides); experiment: Test A postemergence; conditions: postemergence; for Blackgrass plant response rating: 125 g ai/ha, visual injury rating on 0 to 100 scale (0 no effect, 100 complete control), approx. 10 d; for Plant response rating, Blackgrass: 500 g ai/ha, 0 to 100 scale, 0 no effect, 100 complete control
How it was run: as §1

[9] = system: Galium (catchweed bedstraw, Galium aparine); experiment: Test A postemergence; conditions: postemergence; for Galium plant response rating: 125 g ai/ha, visual injury rating on 0 to 100 scale (0 no effect, 100 complete control), approx. 10 d; for Plant response rating, Galium: 500 g ai/ha, 0 to 100 scale, 0 no effect, 100 complete control
How it was run: as §1

[10] = system: giant foxtail (Setaria faberii); experiment: Test A preemergence; conditions: for Plant response rating, Foxtail, Giant: 125 g ai/ha, preemergence, 0 to 100 scale (0 no effect, 100 complete control); for Foxtail, Giant plant response rating (0 to 100 scale, 0 is no effect, 100 is complete control): Preemergence, 500 g ai/ha, visual injury approx. 10 d
How it was run: as §1

[11] = system: pigweed (Amaranthus retroflexus); experiment: Test A preemergence; conditions: for Plant response rating, Pigweed: 125 g ai/ha, preemergence, 0 to 100 scale (0 no effect, 100 complete control); for Pigweed plant response rating (0 to 100 scale, 0 is no effect, 100 is complete control): Preemergence, 500 g ai/ha, visual injury approx. 10 d
[12] = system: ragweed (common ragweed, Ambrosia elatior); experiment: Test A preemergence; conditions: for Plant response rating, Ragweed: 125 g ai/ha, preemergence, 0 to 100 scale (0 no effect, 100 complete control); for Ragweed plant response rating (0 to 100 scale, 0 is no effect, 100 is complete control): Preemergence, 500 g ai/ha, visual injury approx. 10 d
How it was run: as §1

[13] = system: barnyardgrass (Echinochloa crus-galli); experiment: Test A preemergence; conditions: for Plant response rating, Barnyardgrass: 125 g ai/ha, preemergence, 0 to 100 scale (0 no effect, 100 complete control); for Barnyardgrass plant response rating (0 to 100 scale, 0 is no effect, 100 is complete control): Preemergence, 500 g ai/ha, visual injury approx. 10 d
How it was run: as §1

Kochia (Kochia scoparia) [14] = experiment: Test A preemergence; conditions: for Plant response rating, Kochia: 125 g ai/ha, preemergence, 0 to 100 scale (0 no effect, 100 complete control); for Kochia plant response rating (0 to 100 scale, 0 is no effect, 100 is complete control): Preemergence, 500 g ai/ha, visual injury approx. 10 d
How it was run: as §1

[15] = system: ryegrass, Italian (Italian ryegrass, Lolium multiflorum); experiment: Test A preemergence; conditions: for Plant response rating, Ryegrass, Italian: 125 g ai/ha, preemergence, 0 to 100 scale (0 no effect, 100 complete control); for Ryegrass, Italian plant response rating (0 to 100 scale, 0 is no effect, 100 is complete control): Preemergence, 500 g ai/ha, visual injury approx. 10 d
How it was run: as §1

rice (Oryra sativa) = experiment: Test B flooded paddy test; conditions: Flood, 250 g ai/ha; 0 to 100 scale where 0 is no effect and 100 is complete control; 13 to 15 d
How it was run: (§2)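 Percent control, visually estimated after 13–15 d in the greenhouse on a 0–100 basis, compares treated pots with untreated ones; compound was put into paddy water 3 cm above the soil when plants had two leaves.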

[16] = system: ducksalad (Heteranthera limosa); experiment: Test B flooded paddy test; conditions: Flood, 250 g ai/ha; 0 to 100 scale where 0 is no effect and 100 is complete control; 13 to 15 d
How it was run: as §2

[17] = system: barnyardgrass (Echinochloa crus-galli); experiment: Test B flooded paddy test; conditions: Flood, 250 g ai/ha; 0 to 100 scale where 0 is no effect and 100 is complete control; 13 to 15 d
How it was run: as §2

[18] = system: sedge, umbrella (small-flower umbrella sedge, Cyperus difformis); experiment: Test B flooded paddy test; conditions: Flood, 250 g ai/ha; 0 to 100 scale where 0 is no effect and 100 is complete control; 13 to 15 d
How it was run: as §2

| Structure (SMILES) | Wheat plant response rating [1] | Plant response rating, Wheat [1] | Foxtail, Giant plant response rating [2] | Plant response rating, Foxtail, Giant [2] | Pigweed plant response rating [3] | Plant response rating, Pigweed [3] | Ragweed plant response rating [4] | Plant response rating, Ragweed [4] | Barnyardgrass plant response rating [5] | Plant response rating, Barnyardgrass [5] | Corn plant response rating (corn (Zea mays)) | Plant response rating, Corn (corn (Zea mays)) | Kochia plant response rating (Kochia (Kochia scoparia) [6]) | Plant response rating, Kochia (Kochia (Kochia scoparia) [6]) | Ryegrass, Italian plant response rating [7] | Plant response rating, Ryegrass, Italian [7] | Blackgrass plant response rating [8] | Plant response rating, Blackgrass [8] | Galium plant response rating [9] | Plant response rating, Galium [9] | other results |
| --- | --- | --- | --- | --- | --- | --- | --- | --- | --- | --- | --- | --- | --- | --- | --- | --- | --- | --- | --- | --- | --- |
| CN1CC(c2ccc3c(c2)OC(F)(F)O3)C(C(=O)Nc2ccccc2F)C1=O (stereo not drawn) [Compound 441] | 50 | 80 | 80 | 80 | 40 | 60 | 20 | 50 | 80 | 90 | 60 | 70 | 40 | 70 | 60 | 60 | 50 | 80 | 50 | 50 | Plant response rating, Foxtail, Giant [10]: 90; Foxtail, Giant plant response rating (0 to 100 scale, 0 is no effect, 100 is complete control) [10]: 90; Plant response rating, Pigweed [11]: 50; Pigweed plant response rating (0 to 100 scale, 0 is no effect, 100 is complete control) [11]: 70; Plant response rating, Ragweed [12]: 30; Ragweed plant response rating (0 to 100 scale, 0 is no effect, 100 is complete control) [12]: 80; Plant response rating, Barnyardgrass [13]: 90; Barnyardgrass plant response rating (0 to 100 scale, 0 is no effect, 100 is complete control) [13]: 90; Plant response rating, Kochia (Kochia (Kochia scoparia) [14]): 70; Kochia plant response rating (0 to 100 scale, 0 is no effect, 100 is complete control) (Kochia (Kochia scoparia) [14]): 80; Plant response rating, Ryegrass, Italian [15]: 70; Ryegrass, Italian plant response rating (0 to 100 scale, 0 is no effect, 100 is complete control) [15]: 80; Plant response rating, Rice (rice (Oryra sativa)): 0; Plant response rating, Ducksalad [16]: 90; Plant response rating, Barnyardgrass [17]: 70; Plant response rating, Sedge, Umbrella [18]: 0 |
| O=C1NCC(c2ccc(Br)cc2)C1C(=O)Nc1ccc(F)cc1F (stereo not drawn) [Compound 447] | 0 | 0 | 80 | 80 | 0 | 30 | 0 | 0 | 80 | 80 | 0 | 0 | 0 | 40 | 0 | 20 | 0 | 30 | 40 | 50 | Plant response rating, Foxtail, Giant [10]: 90; Foxtail, Giant plant response rating (0 to 100 scale, 0 is no effect, 100 is complete control) [10]: 90; Plant response rating, Pigweed [11]: 30; Pigweed plant response rating (0 to 100 scale, 0 is no effect, 100 is complete control) [11]: 30; Plant response rating, Ragweed [12]: 0; Ragweed plant response rating (0 to 100 scale, 0 is no effect, 100 is complete control) [12]: 0; Plant response rating, Barnyardgrass [13]: 70; Barnyardgrass plant response rating (0 to 100 scale, 0 is no effect, 100 is complete control) [13]: 90; Plant response rating, Kochia (Kochia (Kochia scoparia) [14]): 50; Kochia plant response rating (0 to 100 scale, 0 is no effect, 100 is complete control) (Kochia (Kochia scoparia) [14]): 50; Plant response rating, Ryegrass, Italian [15]: 20; Ryegrass, Italian plant response rating (0 to 100 scale, 0 is no effect, 100 is complete control) [15]: 30; Plant response rating, Rice (rice (Oryra sativa)): 0; Plant response rating, Ducksalad [16]: 98; Plant response rating, Barnyardgrass [17]: 40; Plant response rating, Sedge, Umbrella [18]: 0 |
| O=C1NCC(c2ccc(Br)cc2)C1C(=O)Nc1cccc(F)c1 (stereo not drawn) [Compound 449] | 0 | 0 | 30 | 80 | 0 | 20 | 0 | 0 | 30 | 80 | 0 | 0 | 20 | 40 | 0 | 20 | 0 | 20 | 0 | 50 | Plant response rating, Foxtail, Giant [10]: 80; Foxtail, Giant plant response rating (0 to 100 scale, 0 is no effect, 100 is complete control) [10]: 90; Plant response rating, Pigweed [11]: 0; Pigweed plant response rating (0 to 100 scale, 0 is no effect, 100 is complete control) [11]: 20; Plant response rating, Ragweed [12]: 0; Ragweed plant response rating (0 to 100 scale, 0 is no effect, 100 is complete control) [12]: 0; Plant response rating, Barnyardgrass [13]: 50; Barnyardgrass plant response rating (0 to 100 scale, 0 is no effect, 100 is complete control) [13]: 90; Plant response rating, Kochia (Kochia (Kochia scoparia) [14]): 20; Kochia plant response rating (0 to 100 scale, 0 is no effect, 100 is complete control) (Kochia (Kochia scoparia) [14]): 40; Plant response rating, Ryegrass, Italian [15]: 20; Ryegrass, Italian plant response rating (0 to 100 scale, 0 is no effect, 100 is complete control) [15]: 0; Plant response rating, Rice (rice (Oryra sativa)): 0; Plant response rating, Ducksalad [16]: 98; Plant response rating, Barnyardgrass [17]: 40; Plant response rating, Sedge, Umbrella [18]: 0 |
